Experimental findings from US12559504B2, “Benzotriazole derivative” (UBE CORPORATION, priority 2019, dated 2026) are described below.

The subject of data set [1] is NQO1. In words: NQO1 enzyme induction test (in vitro) in Hepa1c1c7 cells. Type of data set: cell-based. The following applies: Mus musculus, Hepa-1c1c7, 48 h, concentration to elevate the NQO1 activity by 1.5 times, about 48 hours, read-out: EC150. In outline: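 Mouse Hepa1c1c7 cells treated about 48 h with compound (0.1% DMSO final), then lysed. NQO1 activity read as MTT reduction at 540 nm with menadione substrate, 5 min at room temperature, and corrected for cell number by CellTiter-Glo. EC150 is the concentration raising NQO1 activity 1.5-fold.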

In data set [2] the test system is NQO1. In words: NQO1 expression induction test in mouse kidney (single administration). Type of data set: in vivo. The note with it: Mus musculus, po, 6 h, BALB/c mouse kidney, 6 hours after administration, ratio to control group. Summed up: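 Female BALB/c mice received a single oral dose of compound in 0.5% methylcellulose, with untreated mice as controls. Six hours later, left-kidney NQO1 mRNA was measured by SYBR real-time RT-PCR normalised to GAPDH. Induction was expressed as the ratio of mean treated to mean control expression.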

For data set [3], the target named is T1, GST fusion human Keap1 (amino acid residue: 325-624) protein (Homo sapiens, UniProt Q14145).
T1 construct: GST fusion human Keap1 (amino acid residue: 325-624) protein; purchased Protein tech Ag0779
Kind of data set: Keap1-Nrf2 binding inhibition test (fluorescence polarization). The note with it: compound concentration of 100 nM; read-out: inhibition rate. Summed up:
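Fluorescence polarization with FITC-labelled Nrf2 peptide (FITC-Ahx-LDEETGEFL-NH2) and GST-human Keap1 (325-624) in 20 mM Tris pH 7.5, 150 mM NaCl, 0.05% Tween 20, 5 mM DTT, BSA; 30 min at room temperature, ex 482/em 530 nm. Percent inhibition at 100 nM compound, Keap1-free wells = 100%.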
Background: Polarisation of emitted light reports the rotation of a fluorescent probe.

Data set [4] in a line: Metabolism test using human liver microsome fractions. It counts as in vitro ADME. The following applies: human liver microsomes, test compound 10 μmol/L, NADPH and UDP-glucuronic acid, 37° C. Summed up:
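Human or monkey liver microsomes (1 mg protein) with NADPH-regenerating system plus UDP-glucuronic acid/UGT mix, 37 °C; compound at 10 μmol/L final. Samples at 0–30 min quenched in acetonitrile, UV-HPLC; elimination rate (pmol/min/mg-P) from linear slope of residual amount over time.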
(Liver microsomes are a subcellular fraction often used to study metabolism.)

Molecules are shown by their SMILES. Some results are limits rather than exact numbers.

T1 sequence (Q14145 325-624): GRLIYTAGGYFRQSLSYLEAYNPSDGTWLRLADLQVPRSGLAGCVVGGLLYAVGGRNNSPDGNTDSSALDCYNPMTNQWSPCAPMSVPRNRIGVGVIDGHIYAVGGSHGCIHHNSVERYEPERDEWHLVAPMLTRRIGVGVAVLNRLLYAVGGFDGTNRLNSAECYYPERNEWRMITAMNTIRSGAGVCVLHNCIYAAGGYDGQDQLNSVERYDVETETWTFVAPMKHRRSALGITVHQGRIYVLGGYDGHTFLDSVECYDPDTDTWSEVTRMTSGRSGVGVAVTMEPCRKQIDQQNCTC

As to `CC[C@@H]1CN(Cc2cc(C(c3ccc4c(nnn4C)c3C)C(C)(C)C(=O)O)ccc2C)Cc2ccc3cnccc3c2O1.O=C(O)C(F)(F)F.O=C(O)C(F)(F)F` (stereo partly drawn) [Example 55-(b), 3-(1,4-dimethyl-1H-benzo[d][1,2,3]triazol-5-yl)-3-(3-(((R)-2-ethyl-2,3-dihydro-[1,4]oxazepino[7,6-f]isoquinolin-4(5H)-yl)methyl)-4-methylphenyl)-2,2-dimethylpropanoic Acid Ditrifluoroacetate], the EC (1.5-fold NQO1 activity) with NQO1 [1] was 0.0005 to 0.005 µM. Moreover, the fold induction (in general, the ratio of treated to control signal) at 30 mg/kg in the data set with NQO1 [2] was at most 3. In addition, the inhibition – broadly, how much of the control response was suppressed – at 0.1 µM in data set [3] is at least 50%. Also, the Human metabolic rate result in data set [4] was “C (150≤metabolic rate<200 pmol/min/mg protein)”.

In the case of `CC[C@@H]1CN(Cc2cc(C(CC(=O)O)c3ccc4c(nnn4C)c3C)ccc2C)Cc2cc3ncccc3cc2O1` (stereo partly drawn) [Example 56-(b), 3-(1,4-dimethyl-1H-benzo[d][1,2,3]triazol-5-yl)-3-(3-(((R)-2-ethyl-2,3-dihydro-[1,4]oxazepino[7,6-g]quinolin-4(5H)-yl)methyl)-4-methylphenyl)propanoic acid], the EC (1.5-fold NQO1 activity) in the data set on NQO1 [1] was in the range of 0.0005 to 0.005 µM. The fold induction at 30 mg/kg in the data set with NQO1 [2] was in the range of 3 to 6. The inhibition at 0.1 µM in data set [3] was at least 50%. The Human metabolic rate entry in data set [4] is reported as “E (metabolic rate≥250 pmol/min/mg protein)”.

For `CC[C@@H]1CN(Cc2cc(C(c3ccc4c(nnn4CC)c3C)C(C)(C)C(=O)O)ccc2C)Cc2cc3ncccc3cc2O1` (stereo partly drawn) [Example 59-(b), 3-(3-(((R)-2-ethyl-2,3-dihydro-[1,4]oxazepino[7,6-g]quinolin-4(5H)-yl)methyl)-4-methylphenyl)-3-(1-ethyl-4-methyl-1H-benzo[d][1,2,3]triazol-5-yl)-2,2-dimethylpropanoic Acid], in the data set on NQO1 [1], the EC (1.5-fold NQO1 activity) lay within 0.0005 to 0.005 µM. Moreover, the fold induction at 30 mg/kg in the data set on NQO1 [2] was above 6. The inhibition at 0.1 µM in data set [3] was at least 50%. The Human metabolic rate result in data set [4] is recorded as “D (200≤metabolic rate<250 pmol/min/me protein)”.

As to `Cc1ccc(C(c2ccc3c(nnn3C)c2C)C(C)(C)C(=O)O)cc1CN1Cc2cc3ncccc3cc2OC(C)(C)C1` (centres unmarked) [Example 60-(b), 3-(1,4-dimethyl-1H-benzo[d][1,2,3]triazol-5-yl)-3-(3-((2,2-dimethyl-2,3-dihydro-[1,4]oxazepino[7,6-g]quinolin-4 (5H)-yl)methyl)-4-methylphenyl)-2,2-dimethylpropanoic Acid], the EC (1.5-fold NQO1 activity) with NQO1 [1] lay within 0.0005 to 0.005 µM. Also, in the data set on NQO1 [2], the fold induction at 30 mg/kg is at most 3. Moreover, in data set [3], the inhibition at 0.1 µM was at least 50%. Moreover, in data set [4], the Human metabolic rate result is reported as “D (200≤metabolic rate<250 pmol/min/me protein)”.

Consider `CC[C@@H]1CN(Cc2cc(C(c3ccc4c(nnn4C)c3C)C(C)(C)C(=O)O)ccc2C)Cc2cc3c(cc2O1)OC(C)(C)O3` (stereo partly drawn) [Example 61-(b), 3-(1,4-dimethyl-1H-benzo[d][1,2,3)triazol-5-yl)-3-(3-(((R)-6-ethyl-2,2-dimethyl-6,7-dihydro-(1,3]dioxolo[4′,5′:4,5]benzo[1,2-f][1,4]oxazepin-8(9H)-yl)methyl)-4-methylphenyl)-2,2-dimethylpropanoic Acid], for which the EC (1.5-fold NQO1 activity) in the data set with NQO1 [1] lay in the range of 0.005 to 0.05 µM. Moreover, the fold induction at 30 mg/kg in the data set with NQO1 [2] fell in the range of 3 to 6. The inhibition at 0.1 µM in data set [3] was at least 50%. Moreover, the Human metabolic rate result in data set [4] was “A (metabolic rate<100 pmol/min/mg protein)”.

For `Cc1ccc(C(c2ccc3c(nnn3C)c2C)C(C)(C)C(=O)O)cc1CN1CCOc2cc3cccnc3cc2C1` (centres unmarked) [Example 63-(b), 3-(3-((2,3-dihydro-[1,4]oxazepino[7,6-g]quinolin-4 (5H)-yl)methyl)-4-methylphenyl)-3-(1,4-dimethyl-1H-benzo[d][1,2,3]triazol-5-yl)-2,2-dimethylpropanoic Acid], in the data set on NQO1 [1], the EC (1.5-fold NQO1 activity) lay within 0.005 to 0.05 µM. Besides, in the data set on NQO1 [2], the fold induction at 30 mg/kg lay within 3 to 6. In addition, in data set [3], the inhibition at 0.1 µM was at least 50%. Moreover, the Human metabolic rate entry in data set [4] was “C (150≤metabolic rate<200 pmol/min/mg protein)”.

As for `CC[C@@H]1CN(Cc2cc(C(c3ccc4c(nnn4C)c3C)C(C)(C)C(=O)O)ccc2C)Cc2cc3c(cnn3C)cc2O1` (stereo partly drawn) [Example 65-(b), 3-(1,4-dimethyl-1H-benzo[d][1,2,3]triazol-5-yl)-3-(3-(((R)-6-ethyl-1-methyl-1,6,7,9-tetrahydro-8H-[1,4]oxazepino[7,6-f]indazol-8-yl)methyl)-4-methylphenyl)-2,2-dimethylpropanoic Acid], the EC (1.5-fold NQO1 activity) in the data set with NQO1 [1] was in the range of 0.0005 to 0.005 µM. Further, the fold induction at 20 mg/kg with NQO1 [2] is 3 to 6. Further, the inhibition at 0.1 µM in data set [3] is at least 50%. Further, in data set [4], the Human metabolic rate entry is “D (200≤metabolic rate<250 pmol/min/me protein)”.

Turning to `CC[C@@H]1CN(Cc2cc(C(c3ccc4c(nnn4C)c3C)C(C)(C)C(=O)O)ccc2C)Cc2cc3nn(C)cc3cc2O1` (stereo partly drawn) [Example 66-(b), 3-(1,4-dimethyl-1H-benzo[d][1,2,3]triazol-5-yl)-3-(3-(((R)-6-ethyl-2-methyl-2,6,7,9-tetrahydro-8H-[1,4]oxazepino[7,6-f]indazol-8-yl)methyl)-4-methylphenyl)-2,2-dimethylpropanoic Acid], the EC (1.5-fold NQO1 activity) with NQO1 [1] was 0.0005 to 0.005 µM. Further, the fold induction at 20 mg/kg in the data set with NQO1 [2] is above 6. The inhibition at 0.1 µM in data set [3] is at least 50%. The Human metabolic rate result in data set [4] is listed as “E (metabolic rate≥250 pmol/min/mg protein)”.

For the molecule `CC[C@@H]1CN(Cc2cc(C(c3ccc4c(nnn4C)c3C)C(C)(C)C(=O)O)ccc2C)Cc2cc3c(Cl)cccc3cc2O1` (stereo partly drawn) [Example 68-(b), 3-(3-(((R)-7-chloro-2-ethyl-2,3-dihydronaphtho[2,3-f][1,4]oxazepin-4 (5H)-yl)methyl)-4-methylphenyl)-3-(1,4-dimethyl-1H-benzo[d][1,2,3]triazol-5-yl)-2,2-dimethylpropanoic Acid], in the data set on NQO1 [1], the EC (1.5-fold NQO1 activity) fell in the range of 0.005 to 0.05 µM. Moreover, in the data set on NQO1 [2], the fold induction at 20 mg/kg fell in the range of 3 to 6. In addition, the inhibition at 0.1 µM in data set [3] was at least 50%. Also, in data set [4], the Human metabolic rate result is “A (metabolic rate<100 pmol/min/mg protein)”.

With `CC[C@@H]1CN(Cc2cc(C(c3ccc4c(nnn4C)c3C)C(C)(C)C(=O)O)ccc2C)Cc2cc3nccc(Cl)c3cc2O1` (stereo partly drawn) [Example 69, 3-(3-(((R)-10-chloro-2-ethyl-2,3-dihydro-[1,4]oxazepino[7,6-g]quinolin-4 (5H)-yl)methyl)-4-methylphenyl)-3-(1,4-dimethyl-1H-benzo[d][1,2, 3]triazol-5-yl)-2,2-dimethylpropanoic Acid], the EC (1.5-fold NQO1 activity) in the data set on NQO1 [1] is below 0.0005 µM. Further, the fold induction at 20 mg/kg in the data set on NQO1 [2] was 3 to 6. In data set [3], the inhibition at 0.1 µM was at least 50%. In addition, the Human metabolic rate result in data set [4] is “D (200≤metabolic rate<250 pmol/min/me protein)”.

With `CC[C@@H]1CN(Cc2cc(C(c3ccc4c(nnn4C)c3C)C(C)(C)C(=O)O)ccc2C)Cc2cc3nccc(OC)c3cc2O1` (stereo partly drawn) [Example 70-(b), 3-(1,4-dimethyl-1H-benzo[d][1,2,3]triazol-5-yl)-3-(3-(((R)-2-ethyl-10-methoxy-2,3-dihydro-[1,4]oxazepino[7,6-g]quinolin-4(5H)-yl)methyl)-4-methylphenyl)-2,2-dimethylpropanoic Acid], the EC (1.5-fold NQO1 activity) in the data set with NQO1 [1] was in the range of 0.0005 to 0.005 µM. The fold induction at 20 mg/kg in the data set with NQO1 [2] was above 6. The inhibition at 0.1 µM in data set [3] was at least 50%. For the same molecule, the Human metabolic rate entry in data set [4] is given as “E (metabolic rate≥250 pmol/min/mg protein)”.
